For the data set the following is noted: pampa; 60.0 min; 50.0 µM.
Molecule `C[C@H](Nc1nc(N[C@H](C)C(F)(F)F)nc(-c2cccc(Cl)n2)n1)C(F)(F)F` came in with a Papp of 122 ×10⁻⁶ cm/s. As for `N=c1c2c(-c3ccccc3)c(-c3ccccc3)n(CCc3ccccc3)c2ncn1C1CCN(Cc2ccccc2)CC1`, the figure is 14 ×10⁻⁶ cm/s. Regarding `N=c1c2c(-c3ccccc3)c(-c3ccccc3)n(Cc3ccccc3)c2ncn1CCNc1ccncc1`, the Papp was 90 ×10⁻⁶ cm/s. Compared with the last molecule, the Papp is about 6.4-fold higher. As for `Cn1nnnc1Sc1ncnc2scc(-c3ccc(Cl)cc3)c12`, the figure is over 300 ×10⁻⁶ cm/s; as for `CC(NC(CCc1ccccc1)C(=O)O)C(=O)N1C(=O)N(C)CC1C(=O)O` (configuration not stated), under 1 ×10⁻⁶ cm/s. As for `CSCC[C@H](NC(=O)[C@H](Cc1ccccc1)NC(=O)CNC(=O)CNC(=O)[C@@H](N)Cc1ccc(O)cc1)C(=O)O`, the figure is under 1 ×10⁻⁶ cm/s; as for `C[C@@H]1C[C@@H](O)[C@]2(O)O[C@@H]3C[C@@]4(C=O)C(CC[C@@H]5C4CC[C@]4(C)[C@@H](C6=CC(=O)OC6)CC[C@]54O)C[C@H]3O[C@@H]2O1` (some centres not stated), under 1 ×10⁻⁶ cm/s. The same measure for `CCOC(=O)c1ccc(NC(=O)c2sc3nc4c(cc3c2N)N2CCC4CC2)cc1`: 255 ×10⁻⁶ cm/s; for `CC(/C=C/[C@@H]1C[C@]1(C)c1ccc2c(c1)C(C)(C)CCC2(C)C)=C\C(=O)O`: 63 ×10⁻⁶ cm/s; for `N#Cc1ccnc(Nc2cc(C3CCN(C4COC4)CC3)cc(N3CCC(F)(F)C3)n2)c1`: 133 ×10⁻⁶ cm/s. Molecule `CC(C)c1cc(-c2n[nH]c(=O)n2-c2ccc3c(ccn3C)c2)c(O)cc1O` yielded a Papp of 79.5 ×10⁻⁶ cm/s. The same measure for `O=C(NCC1CCOCC1)c1cnc(Nc2ccc(Cl)cc2Cl)nc1C(F)(F)F`: under 1 ×10⁻⁶ cm/s; for `CN1CCN(CCCN2c3ccccc3Sc3ccc(C(F)(F)F)cc32)CC1`: 53 ×10⁻⁶ cm/s. `CO/N=C(\C(=O)N[C@@H]1C(=O)N2C(C(=O)O)=C(C[N+]3(C)CCCC3)CS[C@H]12)c1csc(N)n1` came in with a Papp of under 1 ×10⁻⁶ cm/s.

Turning to `COCCn1cnc2c(c(-c3ccccc3)c(-c3ccccc3)n2Cc2ccccc2)c1=N`, the Papp was 174 ×10⁻⁶ cm/s.

As to `c1nc(NC2CCCCCC2)c2cc(CNC[C@H]3CCCO3)sc2n1`, the Papp is 105 ×10⁻⁶ cm/s.

For the molecule `Cc1nc2c([nH]1)CCN(C(=O)c1ccc(NC(=O)c3ccccc3-c3ccccc3)cc1)c1ccccc1-2`, the Papp came to 98 ×10⁻⁶ cm/s. The Papp values of the last two molecules are within 1.5-fold of each other. On to `N=c1c2c(-c3ccccc3)c(-c3ccccc3)n(Cc3ccccc3)c2ncn1C1CCC(O)CC1` (configuration not stated), for which the Papp worked out at 150 ×10⁻⁶ cm/s. As for `O=C(CBr)N1CC([N+](=O)[O-])([N+](=O)[O-])C1`, the figure is under 1 ×10⁻⁶ cm/s; as for `CCCCCCCCc1ccc(CCC(N)(CO)CO)cc1`, under 1 ×10⁻⁶ cm/s; as for `COC1CC(=C(c2cccs2)c2cccs2)C[N+](C)(C)C1` (configuration not stated), under 1 ×10⁻⁶ cm/s. As for `COc1c(C)c2c(c(O)c1C/C=C(\C)CCC(=O)O)C(=O)OC2`, the figure is under 1 ×10⁻⁶ cm/s; as for `Nc1ncnc2c1ncn2[C@@H]1O[C@H](CSCC[C@H](N)C(=O)O)[C@@H](O)[C@H]1O`, under 1 ×10⁻⁶ cm/s.

In turn, `O=C(O)C1=C(CSc2nnnn2CS(=O)(=O)O)CS[C@@H]2[C@H](NC(=O)[C@H](O)c3ccccc3)C(=O)N12` yielded a Papp of 12 ×10⁻⁶ cm/s. As for `O=C(NCCCN1CCCC1=O)c1ccc(-c2ncc3cnc(-c4ccccc4)cn23)cc1`, the figure is 31 ×10⁻⁶ cm/s.

Molecule `N=c1c2c(-c3ccccc3)c(-c3ccccc3)n(Cc3ccccc3)c2ncn1CCCCCO` registered a Papp of 203 ×10⁻⁶ cm/s. `Oc1c(Cl)cc(Cl)cc1Sc1cc(Cl)cc(Cl)c1O` showed a Papp of 288 ×10⁻⁶ cm/s.

Molecule `Cc1ccc(-n2c(C)cc(-c3nnc4n3CCCCC4)c2C)cc1` displayed a Papp of 192 ×10⁻⁶ cm/s. As for `CC(C)[C@]12O[C@H]1[C@@H]1O[C@]13[C@]1(O[C@H]1C[C@H]1C4=C(CC[C@@]13C)C(=O)OC4)[C@@H]2O`, the figure is under 1 ×10⁻⁶ cm/s; as for `O=C(O)C1CCc2cc(C3CCCCC3)c(Cl)cc21` (configuration not stated), 61 ×10⁻⁶ cm/s. As for `Cn1c2cc(S(C)=O)sc2c2cnn(Cc3ccccc3F)c(=O)c21` (configuration not stated), the figure is 49 ×10⁻⁶ cm/s; as for `Cn1nnnc1Sc1ncnc2scc(-c3ccc([N+](=O)[O-])cc3)c12`, 93 ×10⁻⁶ cm/s.
